Source: article PMC7332671 (Acta Pharmaceutica Sinica. B, 2020)
Read-outs that look alike come from different tables or passages of the source.

Assays:
Assay in all cases: SPR
Type in all cases: binding
P53 [1] = biological target: T1, P53 (Homo sapiens, UniProt P04637)
P53 [2] = biological target: T1, P53; remark: listed apart in the source
P53 [3] = biological target: T1, P53; remark: listed apart in the source

T1 sequence (P04637 94-312): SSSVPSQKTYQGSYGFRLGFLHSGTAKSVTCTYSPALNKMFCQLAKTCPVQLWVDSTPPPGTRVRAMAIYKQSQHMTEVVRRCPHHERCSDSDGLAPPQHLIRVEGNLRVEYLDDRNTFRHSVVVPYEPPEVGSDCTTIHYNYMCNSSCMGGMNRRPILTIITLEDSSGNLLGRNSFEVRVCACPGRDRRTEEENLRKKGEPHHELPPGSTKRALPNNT

Compound | Kd (P53 [1]) [µM] | other results
20(S)-Ro | 10.2 | 
CC(C)=CCC[C@](C)(O)[C@H]1CC[C@]2(C)[C@@H]1[C@H](O)C[C@@H]1[C@@]3(C)CC[C@H](O)C(C)(C)[C@@H]3CC[C@]12C [20(S)-PPD] | 41.1 | 
CC(C)=CCC[C@](C)(O)[C@H]1CC[C@]2(C)[C@@H]1[C@H](O)C[C@@H]1[C@@]3(C)CC[C@H](O)C(C)(C)[C@@H]3[C@@H](O)C[C@]12C [(S)-PPT, 20(S)-Protopanaxatriol] |  | Kd (P53 [2]): 6.63 µM
CCn1c2ccccc2c2cc(CNC)ccc21 [PhiKan083] |  | Kd (P53 [3]): 122 µM
